Test results from patent publication US12538924B2, “Pesticidally active heterocyclic derivatives with sulfur containing substituents” (SYNGENTA CROP PROTECTION AG, priority 2019, dated 2026).

How the values were obtained:
Assay type in all cases: in vivo
[1] = test system: Diabrotica Balteata (Corn Root Worm); assay: Diabrotica balteata (Corn Root Worm), sprayed maize sprouts; conditions: 96 h, application rate of 200 ppm, L2 larvae on sprayed maize sprouts, 4 days after infestation, read-out: effect in at least one of the two categories (mortality or growth inhibition)
Description: Example B2: Diabrotica Balteata (Corn Root Worm)
Maize sprouts placed onto an agar layer in 24-well microtiter plates were treated with aqueous test solutions prepared from 10'000 ppm DMSO stock solutions by spraying. After drying, the plates were infested with L2 larvae (6 to 10 per well). The samples were assessed for mortality and growth inhibition in comparison to untreated samples 4 days after infestation.

[2] = test system: Euschistus heros (Neotropical Brown Stink Bug); assay: Euschistus heros (Neotropical Brown Stink Bug), sprayed soybean leaves; conditions: 120 h, application rate of 200 ppm, N2 nymphs on sprayed soybean leaves, 5 days after infestation, read-out: effect in at least one of the two categories (mortality or growth inhibition)
Description: Example B3: Euschistus heros (Neotropical Brown Stink Bug)
Soybean leaves on agar in 24-well microtiter plates were sprayed with aqueous test solutions prepared from 10'000 ppm DMSO stock solutions. After drying the leaves were infested with N2 nymphs. The samples were assessed for mortality and growth inhibition in comparison to untreated samples 5 days after infestation.

[3] = test system: Frankliniella occidentalis (Western Flower Thrips); assay: Frankliniella occidentalis (Western Flower Thrips): Feeding/Contact Activity; conditions: foliar, 168 h, application rate of 200 ppm, population of mixed ages on sprayed sunflower leaf discs, 7 days after infestation
Description: Example B4: Frankliniella occidentalis (Western Flower Thrips): Feeding/Contact Activity
Sunflower leaf discs were placed on agar in 24-well microtiter plates and sprayed with aqueous test solutions prepared from 10'000 DMSO stock solutions. After drying the leaf discs were infested with a Frankliniella population of mixed ages. The samples were assessed for mortality 7 days after infestation.

[4] = test system: Plutella xylostella (Diamond Back Moth); assay: Plutella xylostella (Diamond Back Moth), treated artificial diet; conditions: 192 h, application rate of 200 ppm, eggs on treated artificial diet, 8 days after infestation, read-out: effect in at least one of the two categories (mortality or growth inhibition)
Description: Example B5: Plutella xylostella (Diamond Back Moth)
24-well microtiter plates with artificial diet were treated with aqueous test solutions prepared from 10'000 ppm DMSO stock solutions by pipetting. After drying, Plutella eggs were pipetted through a plastic stencil onto a gel blotting paper and the plate was closed with it. The samples were assessed for mortality and growth inhibition in comparison to untreated samples 8 days after infestation.

[5] = test system: Myzus persicae (Green Peach Aphid); assay: Myzus persicae (Green Peach Aphid): Feeding/Contact Activity; conditions: foliar, 144 h, application rate of 200 ppm, aphid population of mixed ages on sprayed sunflower leaf discs, 6 days after infestation
Description: Example B6: Myzus persicae (Green Peach Aphid): Feeding/Contact Activity
Sunflower leaf discs were placed onto agar in a 24-well microtiter plate and sprayed with aqueous test solutions prepared from 10'000 ppm DMSO stock solutions. After drying, the leaf discs were infested with an aphid population of mixed ages. The samples were assessed for mortality 6 days after infestation.

[6] = test system: Myzus persicae (Green Peach Aphid); assay: Myzus persicae (Green Peach Aphid): Systemic Activity; conditions: 144 h, test rate of 24 ppm, roots of infested pea seedlings placed into test solutions, 6 days
Description: Example B7: Myzus persicae (Green Peach Aphid): Systemic Activity
Roots of pea seedlings infested with an aphid population of mixed ages were placed directly into aqueous test solutions prepared from 10'000 DMSO stock solutions. The samples were assessed for mortality 6 days after placing seedlings into test solutions.

[7] = test system: Spodoptera littoralis (Egyptian Cotton Leaf Worm); assay: Spodoptera littoralis (Egyptian Cotton Leaf Worm), sprayed cotton leaf discs; conditions: foliar, 72 h, application rate of 200 ppm, L1 larvae on sprayed cotton leaf discs, 3 days after infestation, read-out: control (mortality, anti-feeding effect or growth inhibition)
Description: Example B8: Spodoptera littoralis (Egyptian Cotton Leaf Worm)
Cotton leaf discs were placed onto agar in 24-well microtiter plates and sprayed with aqueous test solutions prepared from 10'000 ppm DMSO stock solutions. After drying the leaf discs were infested with five L1 larvae. The samples were assessed for mortality, anti-feeding effect, and growth inhibition in comparison to untreated samples 3 days after infestation. Control of Spodoptera littoralis by a test sample is given when at least one of the categories mortality, anti-feedant effect, and growth inhibition is higher than the untreated sample.

[8] = test system: Nilaparvata lugens (Brown Plant Hopper); assay: Nilaparvata lugens (Brown Plant Hopper): Larvicide, Feeding/Contact; conditions: 168 h, application rate of 50 ppm, N3 nymphs on sprayed rice plants, 7 days after the treatment
Description: Example B10: Nilaparvata lugens (Brown Plant Hopper): Larvicide, Feeding/Contact
Rice plants were treated with the diluted test solutions in a spray chamber. After drying plants were infested with ˜20 N3 nymphs. 7 days after the treatment samples were assessed for mortality and growth regulation.

[9] = test system: Nilaparvata lugens (Brown Plant Hopper); assay: Nilaparvata lugens (Brown Plant Hopper): Igr, Feeding/Contact; conditions: 360 h, application rate of 50 ppm, sprayed rice plants, N3 nymphs, assessed for effect on F1 generation 15 days after the treatment
Description: Example B11: Nilaparvata lugens (Brown Plant Hopper): Igr, Feeding/Contact
Rice plants were treated with the diluted test solutions in a spray chamber. After drying plants were infested with ˜20 N3 nymphs. 7 days after treatment adults were removed and 15 days after the treatment samples were assessed for effect on F1 generation.

[10] = test system: Nilaparvata lugens (Brown Plant Hopper); assay: Nilaparvata lugens (Brown Plant Hopper): Larvicide, Systemic into Water; conditions: 168 h, test rate of 12.5 ppm, rice plants in nutritive solution, N3 nymphs, 7 days after infestation
Description: Example B12: Nilaparvata lugens (Brown Plant Hopper): Larvicide, Systemic into Water
Rice plants cultivated in a nutritive solution were treated with the diluted test solutions into nourishing cultivation system. 1 day after application plants were infested with ˜20 N3 nymphs. 7 days after infestation samples were assessed for mortality and growth regulation.

[11] = test system: Bemisia tabaci (Cotton White Fly); assay: Bemisia tabaci (Cotton White Fly): Feeding/Contact Activity; conditions: foliar, 144 h, application rate of 200 ppm, adult white flies on sprayed cotton leaf discs, 6 days after incubation
Description: Example B1: Bemisia tabaci (Cotton White Fly): Feeding/Contact Activity
Cotton leaf discs were placed on agar in 24-well microtiter plates and sprayed with aqueous test solutions prepared from 10'000 ppm DMSO stock solutions. After drying the leaf discs were infested with adult white flies. The samples were checked for mortality 6 days after incubation.

[12] = test system: Tetranychus urticae (Two-Spotted Spider Mite); assay: Tetranychus urticae (Two-Spotted Spider Mite): Feeding/Contact Activity; conditions: foliar, 192 h
Description: Example B9: Tetranychus urticae (Two-Spotted Spider Mite): Feeding/Contact Activity
Bean leaf discs on agar in 24-well microtiter plates were sprayed with aqueous test solutions prepared from 10'000 ppm DMSO stock solutions. After drying the leaf discs were infested with a mite population of mixed ages. The samples were assessed for mortality on mixed population (mobile stages) 8 days after infestation.

CCS(=O)(=O)c1cc(N(C)C(C)=O)cnc1N1Cc2cnc(C(F)(F)F)cc2C1=O [Compound P3, N-[5-ethylsulfonyl-6-[1-oxo-6-(trifluoromethyl)-3H-pyrrolo[3,4-c]pyridin-2-yl]-3-pyridyl]-N-methyl-acetamide]
≥ 80%: percent effect (mortality or growth inhibition) at 200 ppm [1] | percent effect (mortality or growth inhibition) at 200 ppm [2] | mortality at 200 ppm [3] | percent effect (mortality or growth inhibition) at 200 ppm [4] | mortality at 200 ppm [5] | mortality at 24 ppm [6] | percent control (mortality, anti-feedant effect or growth inhibition) at 200 ppm [7] | mortality at 50 ppm [8] | mortality at 50 ppm [9] | mortality at 12.5 ppm [10]

CCS(=O)(=O)c1cc(C2(C#N)CC2)cnc1N1Cc2cnc(C(F)(F)F)cc2C1=O [Compound P8, 1-[5-ethylsulfonyl-6-[1-oxo-6-(trifluoromethyl)-3H-pyrrolo[3,4-c]pyridin-2-yl]-3-pyridyl]cyclopropanecarbonitrile]
≥ 80%: mortality at 200 ppm [11] | percent effect (mortality or growth inhibition) at 200 ppm [1] | percent effect (mortality or growth inhibition) at 200 ppm [2] | mortality at 200 ppm [3] | percent effect (mortality or growth inhibition) at 200 ppm [4] | mortality at 200 ppm [5] | mortality at 24 ppm [6] | percent control (mortality, anti-feedant effect or growth inhibition) at 200 ppm [7] | mortality at 50 ppm [8] | mortality at 50 ppm [9] | mortality at 12.5 ppm [10]

CCS(=O)(=O)c1cc(C(F)(F)F)cnc1N1Cc2cnc(C(F)(F)F)cc2C1=O [Compound P10, 2-[3-ethylsulfonyl-5-(trifluoromethyl)-2-pyridyl]-6-(trifluoromethyl)-3H-pyrrolo[3,4-c]pyridin-1-one]
≥ 80%: mortality at 200 ppm [11] | percent effect (mortality or growth inhibition) at 200 ppm [1] | percent effect (mortality or growth inhibition) at 200 ppm [2] | percent effect (mortality or growth inhibition) at 200 ppm [4] | mortality at 200 ppm [5] | mortality at 24 ppm [6] | percent control (mortality, anti-feedant effect or growth inhibition) at 200 ppm [7] | mortality at 50 ppm [8] | mortality at 50 ppm [9] | mortality at 12.5 ppm [10]

CCS(=O)(=O)c1cc(C2(C#N)CC2)cnc1N1Cc2ncc(C(F)(F)F)cc2C1=O [Compound P11, 1-[5-ethylsulfonyl-6-[5-oxo-3-(trifluoromethyl)-7H-pyrrolo[3,4-b]pyridin-6-yl]-3-pyridyl]cyclopropanecarbonitrile]
≥ 80%: mortality at 200 ppm [11] | percent effect (mortality or growth inhibition) at 200 ppm [1] | percent effect (mortality or growth inhibition) at 200 ppm [2] | percent effect (mortality or growth inhibition) at 200 ppm [4] | mortality at 200 ppm [5] | mortality at 24 ppm [6] | percent control (mortality, anti-feedant effect or growth inhibition) at 200 ppm [7] | mortality at 50 ppm [8] | mortality at 50 ppm [9] | mortality at 12.5 ppm [10]

CCS(=O)(=O)c1ccc(N(C)C(=O)C2CC2)nc1N1Cc2cnc(C(F)(F)F)cc2C1=O [Compound P18, N-[5-ethylsulfonyl-6-[1-oxo-6-(trifluoromethyl)-3H-pyrrolo[3,4-c]pyriclin-2-yl]-2-pyridyl]-N-methyl-cyclopropanecarboxamide]
≥ 80%: mortality at 200 ppm [11] | percent effect (mortality or growth inhibition) at 200 ppm [1] | percent effect (mortality or growth inhibition) at 200 ppm [2] | percent effect (mortality or growth inhibition) at 200 ppm [4] | mortality at 200 ppm [5] | mortality at 24 ppm [6] | percent control (mortality, anti-feedant effect or growth inhibition) at 200 ppm [7] | mortality at 50 ppm [8] | mortality at 50 ppm [9] | mortality at 12.5 ppm [10]

N#CC1(c2cnc(N3Cc4cnc(C(F)(F)F)cc4C3=O)c(S(=O)(=O)CC3CC3)c2)CC1 [Compound P28, 1-[5-(cyclopropylmethylsulfonyl)-6-[1-oxo-6-(trifluoromethyl)-3H-pyrrolo[3,4-c]pyridin-2-yl]-3-pyridyl]cyclopropanecarbonitrile]
≥ 80%: mortality at 200 ppm [11] | percent effect (mortality or growth inhibition) at 200 ppm [1] | percent effect (mortality or growth inhibition) at 200 ppm [2] | percent effect (mortality or growth inhibition) at 200 ppm [4] | mortality at 200 ppm [5] | percent control (mortality, anti-feedant effect or growth inhibition) at 200 ppm [7] | mortality at 200 ppm [12]
